Measurements: a melting point compilation (Tetko et al.; mined from patent text by program, amines drawn as free bases though some values may be those of a salt)

| melting point [°C] | SMILES |
| --- | --- |
| 197 to 198 | Cc1c(C)c2c(c(C)c1NC(=O)CC(C)(C)C)C(N1CCCC1)C(C)(C)O2 (stereo not given) |
| 152 to 154 | Cc1ccnc(Cl)c1C(=O)O |
| 158 to 160 | COc1ccccc1NC(=O)c1ccc(C#N)cc1 |
| 110 to 111 | O=C(NCCO)c1ccnc(-c2cccc3cc(Cc4cccc(C(F)(F)F)c4)sc23)c1F |
| 132 | CCSc1nc(N)ccc1[N+](=O)[O-] |
| 103 to 105 | O=P(c1ccccc1)(c1ccc(F)cc1)c1ccc(F)cc1 |
| 120 to 121 | CCOc1nn(-c2ccc(C(F)(F)F)cn2)cc1CCCOc1ccc(CCC(=O)O)c(OC)c1 |
| 96 to 99 | O=C1CC(=O)OC(CCc2ccccc2)(C2CCCC2)C1 (stereo not given) |
| 350 to 354 | Cc1cc2c(=O)n3cc(C(N)=O)ccc3nc2s1 |
| 190 to 192 | CC1CCN2C=CC3=C(N=C12)C(c1c[nH]c2ccccc12)CC=C3 (stereo not given) |
| 268 | Cn1cc(OS(C)(=O)=O)c(=O)c2ccc(C#N)cc21 |
| 232 to 234 | CC1(C)Oc2cc3nonc3cc2C(NC(=O)CCl)C1O (stereo not given) |
| 121 to 124 | CC(C)c1ccc(C2(OC(=O)C(C)(C)C)C(=O)c3ccccc3C2=O)c(OC(=O)C(C)(C)C)c1 |
| 157 to 158 | CCCCc1ncc(/C=C2\C(=O)N(CC(=O)OCC)c3c(OC)cccc32)n1Cc1ccc(C(=O)OC)cc1 |
| 183 to 184 | CSc1nn2c(O)cc(C)nc2c1S(=O)(=O)c1ccc(C(C)C)cc1 |
| 175 to 176 | COC[C@H](C)Oc1cc(N(C)S(=O)(=O)c2ccccn2)c2[nH]c(C3=NCC(CN4CCS(=O)CC4)S3)cc2c1 (stereo not given in full) |
| 78 to 81 | CCOC(=O)c1cc(=O)cc(-c2ccccc2OC)o1 |
| 168 to 170 | Cc1cc(-c2ccnc(C(N)=O)c2)n(-c2ccc(F)cc2)n1 |
| 68 to 70 | Cc1cccc(-c2n[nH]cc2-c2ccc(F)c(-c3ccc(CN4CCOCC4)cn3)c2)n1 |
| 172 to 175 | COCCc1nc2c(N)nc3ccccc3c2n1CCCCCS(=O)(=O)c1ccccc1 |

| melting point [°C] | SMILES |
| --- | --- |
| 130 to 131 | c1ccc(-c2ccc(-c3nc(COc4ccc(CCCn5ccnc5)cc4)co3)o2)cc1 |
| 85 to 86 | CCCCC1OC(=O)c2cc(C#N)ccc21 (stereo not given) |
| 59 to 60 | CCOC1OC(C(O)CO)C(O)C1O (stereo not given) |
| 258 | Cc1sc(NC=O)c(C#N)c1Cl |
| 79.5 to 80.5 | c1ccc(OCc2ccc3ccccc3n2)cc1 |
| 74 to 76 | CCCN(CCC)CCCCNC(=O)c1cnc2cc(I)ccc2n1 |
| 169 to 180 | Cc1nnc(-c2ccc(CN3C(=O)C4(COc5cc6c(cc54)CCO6)c4ccccc43)cc2)[nH]1 (stereo not given) |
| 155 | Nc1ccc(OCc2c(Cl)cccc2Cl)cc1[N+](=O)[O-] |
| 289 to 290 | COc1cc(NC(=O)C(C#N)=CNc2ccc(OC)c(I)c2)c(Cl)cc1Cl |
| 152 to 153 | NCC1(c2cccc(C(F)(F)F)c2)CCN(C(=O)CN2CCN(c3cnccn3)CC2)CC1 |
| 202 to 204 | Cc1cnnc2c(-c3ccc(F)cc3)c(-c3ccncc3)nn12 |
| 76 to 80 | CN(C(=O)OC(C)(C)C)[C@H](Cc1ccc2ccccc2c1)C(=O)N1CCN(S(C)(=O)=O)C[C@H]1Cc1ccccc1 |
| 170 to 172 | CN1CCN(C2=Nc3ccccc3-n3ccc4cc(Cl)cc2c43)CC1 |
| 185 to 187 | COc1cc(N)c(Cl)cc1C(=O)NCC12CCCN(CC1)C2 (stereo not given) |
| 231 | COc1cc([N+](=O)[O-])c(CC(=O)O)c(Cl)c1O |
| 148 to 150 | CCNc1nc(Nc2ccccc2)ncc1C(C)=CC(=O)OCC |
| 134 to 136 | O=C(OCc1ccccc1)N1CC(O)(C(=O)O)C1 |
| 38 to 39 | O=S(=O)(c1ccccc1)C(F)(F)C(F)Cl (stereo not given) |
| 42 to 43.5 | Cc1ccc(S(=O)(=O)OCC(=O)CC2CCC(C)CC2)cc1 (stereo not given) |
| > 300 | O=C(O)CCc1ccc(-c2nc3c(=O)n(CC4CCCCC4)c(=O)n(CC4CCCCC4)c3[nH]2)cc1 |

| melting point [°C] | SMILES |
| --- | --- |
| 141 to 143 | Cc1cc(Br)cnc1CCCNc1ncc(Cc2cccnc2)cc1O |
| 154 to 155 | COc1ccc(-c2nn(Cc3ccc(F)cc3)c(=O)cc2-c2ccncc2)cc1 |
| 61 to 63 | CCCCCCCCCCOc1cc2oc3c(C(=O)OCC)cccc3c(=O)c2cc1CCC(=O)OCC |
| 157 to 159 | CCc1cccc(C)c1CNc1cc(Cl)nc2c1nc(C)n2C |
| 40 to 50 | Cc1cc(CCC(=O)OCC(CO)(COC(=O)CCc2cc(C)c(O)c(C(C)(C)C)c2)COC(=O)CCc2cc(C)c(O)c(C(C)(C)C)c2)cc(C(C)(C)C)c1O |
| 175 to 176 | O=c1[nH]nnc2sccc12 |
| 106 to 108 | COc1ccc(CN(CCN(C)CCCCNC(=NCCCOc2cccc(CN3CCCCC3)c2)NC#N)c2ccccn2)cc1 |
| 95 to 96 | N#Cc1ccc(CC2CCN(Cc3ccccc3)CC2)cc1 |
| 213 to 214 | Nc1nc2ccccc2c2c1ncn2CCCCNC(=O)c1ccncc1 |
| 92 to 94 | CC1(C)OCC(COS(=O)(=O)c2ccc([N+](=O)[O-])cc2)O1 (stereo not given) |
| 180 | COc1ccc(S(=O)(=O)C2(C(=O)O)CCN(C3CCCCCCC3)CC2)cc1 |
| 74 | CCOC(=O)c1ccc(N(N)C(=O)OC(C)(C)C)cc1 |
| 282 | O=c1[nH]c2cc(Cl)cc(Cl)c2c(O)c1Sc1ccc(NC(=S)NCc2ccccc2)cc1 |
| 212 to 213 | CC(=O)N[C@@H](CSC(c1ccccc1)(c1ccccc1)c1ccccc1)C(=O)NCCSC(=O)C(C)(C)C |
| 125 to 126 | O=C(CN1C(=O)c2ccccc2S1(=O)=O)OCCO |
| 170 to 172 | O=C1c2cccc3c(N4CCCC4)c(Br)cc(c23)C(=O)N1O |
| 83 to 85 | CC(=O)NC(=O)OC[C@]1(C)S[C@@H]2[C@H](NC(=O)Cc3ccccc3)C(=O)N2[C@H]1C(=O)OCc1ccc([N+](=O)[O-])cc1 |
| 127 to 129 | CN(C)C(=O)Cc1cc(Br)ccc1I |
| 118 to 119 | CCc1cc(O)nc(C)n1 |
| 195 to 197 | COc1cc2c(cc1OC)C1Cc3ccccc3CC(=O)N1CC2 (stereo not given) |

Continued, compound first:

| SMILES | melting point [°C] |
| --- | --- |
| CN1CCC(c2[nH]c(=O)c3ccccc3c2-c2ccccc2)CC1 | 258 to 260 |
| CN(Cc1ccccc1)c1cc(C#N)ccc1C1NC(=O)NC1=O (stereo not given) | 95 to 98 |
| COC[C@@H]1CC(c2ccc(-c3ccc(N4C[C@H](Cn5ccnn5)OC4=O)cc3F)cn2)=NO1 | 161 |
| CCOC1=NS(=O)(=O)c2cc(I)ccc21 | 185 to 190 |
| Cc1cc(NC(=O)NCc2ccc3c(c2)CN(C2CCC(=O)NC2=O)C3=O)ccc1O (stereo not given) | 210 to 212 |
| COc1cc2cc(-c3ccncc3)oc2cc1OC | 227 to 229 |
| CCCc1c(OCC(O)CSc2ccc(C(=O)CCC(=O)O)c(F)c2)ccc(C(C)=O)c1O (stereo not given) | 136 to 137 |
| Cc1cc2[nH]c3ccccc3n2n1 | 250 to 252 |
| Oc1cccnc1Cc1cccc(Br)c1 | 160 to 162 |
| Cc1cccc(C(=O)N(NC(=O)NS(=O)(=O)c2ccc(Cl)cc2)C(C)(C)C)c1 | 184 to 188 |
| OCCCCOCCCCOCCCCOCCCCOCCCCO | 34.5 to 36.5 |
| CC(=O)Oc1cnccc1CCCOc1cccnc1Cc1cccc(Br)c1 | 122 to 128 |
| O=Cc1nc2cnccc2s1 | 96.5 to 98 |
| CC1(C)Oc2ccccc2-n2c(CN3CCOCC3)ccc21 | 150 to 151 |
| CC(=O)c1oc2ccc(C)cc2c1C | 66.3 to 66.5 |
| O=C(NC(Cc1ccc(-c2cccc3ccccc23)cc1)C(=O)O)C(CS)Cc1ccccc1 (stereo not given) | 158 |
| OCc1nccn1C(c1ccccc1)(c1ccccc1)c1ccccc1 | 243 to 244 |
| COc1ccc(Oc2c(C)cc([N+](=O)[O-])cc2C)cc1 | 117 to 120 |
| COC(=O)C1=C(C)NC(CC(=O)N2CCN(C3CC4CCC(C3)N4Cc3ccccc3OC)CC2)=C(C(=O)OC)C1c1c(Cl)cccc1Cl (stereo not given) | 205 to 213 |
| CSc1ccc(CC(=O)NC(NC(=NC#N)Nc2cccc3ncccc23)C(C)(C)C)cc1 (stereo not given) | 188 to 189 |

| SMILES | melting point [°C] |
| --- | --- |
| CC1CN(C)CCC1(O)c1cc2ccccc2o1 (stereo not given) | 128 to 130 |
| N#Cc1ccc(-c2ccc(C=Cc3ccccc3)o2)nc1 | 154 to 155 |
| COc1cc(OC)cc(C(=O)NC(NC(=NC#N)Nc2ccc(C(F)(F)F)nc2)C(C)(Cl)Cl)c1 (stereo not given) | 187 to 189 |
| COc1ccccc1S(=O)C1CC(=O)N1CC(=O)CCc1ccccc1 (stereo not given) | 129 to 131 |
| NCCCC1(C(N)=O)c2ccccc2-c2ccccc21 | 198 to 200 |
| Cc1nn(C)c(C#N)c1NC=O | 135 |
| CC(C)N(C)C(=O)C(Cc1ccc(C=O)cc1)NC(=O)OC(C)(C)C (stereo not given) | 122 |
| COc1ccc2c(c1)C1=C(SCC3(CCN(CC(O)Cc4ccccc4)CC3)O1)C(=O)C2=O (stereo not given) | 106 |
| O=C(Nc1nnc(C(F)(F)F)s1)c1ccc2ccccc2c1 | 249 to 251 |
| CCN(CC)S(=O)(=O)c1ccc(-c2cnc3[nH]c(CCc4cc(OC)ccn4)nc3c2)cc1 | 127 to 129 |
| O=[N+]([O-])c1cccc(Cn2c(-c3ccc4c(c3)OCO4)nc3ccccc32)c1 | 70.2 to 73 |
| O=C(O)CCCCCO/N=C/c1cccnc1 | 117 |
| COc1cc(Oc2nn(C)c(C(F)(F)F)c2Cl)ccc1[N+](=O)[O-] | 71 to 73.5 |
| CCc1cc(Oc2ccc(S(C)(=O)=O)nc2)cc2cc(C3=NCC(CC(N)=O)S3)[nH]c12 (stereo not given) | 190 to 191 |
| Cc1cc(C2=NOC(c3cc(Cl)cc(Cl)c3)(C(F)(F)F)C2)ccc1C(=O)NCC(N)=O (stereo not given) | 87 to 91 |
| Cc1cc(OCCN)ccc1NC(=O)c1ccc(N2CCNCC2)cc1 | > 250 |
| CC(C)(C)c1cc(Cc2nc(S)n[nH]2)cc(C(C)(C)C)c1O | 184 to 185 |
| Cc1ccc(C2COc3c(C)c(C)c(NC(=O)CC(C)(C)C)c(C)c32)cc1 (stereo not given) | 176 to 177 |
| COCCOCCn1cc(C(=O)NCc2ccc(Cl)cc2)c(=O)c2cc(CN3CC[C@@H](O)C3)ccc21 | 106 to 109 |
| CCN1CCC(C(=O)NO)(S(=O)(=O)c2ccc(Oc3ccc(Cl)cc3)cc2)CC1 | 158 |
